According to the supplement of paper PMC10307832:

Experiments:
Motesanib + Trametinib = compound: CC1(C)CNc2cc(NC(=O)c3cccnc3NCc3ccncc3)ccc21 [Motesanib] + CC(=O)Nc1cccc(-n2c(=O)n(C3CC3)c(=O)c3c(Nc4ccc(I)cc4F)n(C)c(=O)c(C)c32)c1 [Trametinib] (partner 0.02 µM); assay: relative viability (nuclei count vs DMSO), 5 days (fraction); higher = more cells survive
How it was run: (§1)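 For relative viability, nuclei counts in treated wells were divided by those in vehicle wells. Lung cancer cell lines had been pin-tool dosed in 1536-well plates the day after seeding and cultured for 5 days, then fixed and stained in one step (final 0.05% Triton X-100, 1% formaldehyde, 1 ug/ml Hoechst) and imaged at 4×. Doses were one drug alone or a fixed anchor-drug dose plus five library-drug doses (not always all listed) in √10 steps, and values are duplicate-plate medians.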

[1] = compound: C[C@@]1(C(=O)Nc2ccc(F)nc2)CCCN1c1nc(Nc2cc(C3CC3)n[nH]2)c2cccn2n1 + Cc1nc(Nc2ncc(C(=O)Nc3c(C)cccc3Cl)s2)cc(N2CCN(CCO)CC2)n1 [Dasatinib] (partner 0.075 µM); assay: as above
How it was run: as §1

Row | Cell Line | relative viability (Motesanib + Trametinib; first compound 0.01 µM) | relative viability (Motesanib + Trametinib; first compound 0.03162 µM) | relative viability (Motesanib + Trametinib; first compound 0.1 µM) | relative viability (Motesanib + Trametinib; first compound 0.3162 µM) | relative viability (Motesanib + Trametinib; first compound 1 µM) | relative viability ([1]; first compound 0.04 µM) | relative viability ([1]; first compound 0.1265 µM) | relative viability ([1]; first compound 0.4 µM) | relative viability ([1]; first compound 1.265 µM)
1 | NCI-H522 | 0.815 | 0.848 | 0.823 | 0.831 | 0.84 | 0.856 | 0.628 | 0.775 | 0.789
2 | NCI-H838 | 0.494 | 0.568 | 0.507 | 0.544 | 0.529 | 0.299 | 0.198 | 0.187 | 0.213
3 | SW 900 | 0.855 | 0.764 | 0.938 | 0.683 | 0.848 | 0.555 | 0.32 | 0.507 | 0.346
4 | A-427 | 0.742 | 0.702 | 0.774 | 0.775 | 0.762 | 0.632 | 0.557 | 0.617 | 0.453
5 | NCI-H1792 | 0.511 | 0.37 | 0.43 | 0.528 | 0.442 | 0.283 | 1.06 | 0.211 | 0.227
6 | LCLC-97TM1 | 0.152 | 0.202 | 0.198 | 0.226 | 0.195 | 0.54 | 0.224 | 0.229 | 0.134
7 | LCLC-103H | 0.674 | 0.707 | 0.659 | 0.744 | 0.682 | 0.412 | 0.35 | 0.237 | 0.174
8 | PC-3 [JPC-3] | 0.745 | 0.676 | 0.795 | 0.779 | 0.703 | 1.09 | 0.94 | 0.891 | 0.787
9 | BEN | 0.996 | 1.01 | 0.983 | 1.01 | 1.1 | 0.32 | 0.382 | 0.329 | 0.271
10 | NCI-H1666 | 0.736 | 0.904 | 0.905 | 0.858 | 0.838 | 0.709 | 0.613 | 0.486 | 0.412
11 | LC-2-ad | 0.9 | 0.903 | 0.865 | 0.871 | 0.84 | 0.363 | 0.328 | 0.235 | 0.196
12 | SK-LU-1 | 0.424 | 0.591 | 0.476 | 0.536 | 0.544 | 0.116 | 0.112 | 0.0979 | 0.0968
13 | ChaGo-K-1 | 0.894 | 0.889 | 0.91 | 0.942 | 0.95 | 0.505 | 0.486 | 0.522 | 0.443
14 | COR-L 105 | 0.451 | 0.383 | 0.41 | 0.422 | 0.448 | 0.3 | 0.208 | 0.185 | 0.18
15 | NCI-H1975 | 0.335 | 0.359 | 0.316 | 0.38 | 0.339 | 0.263 | 0.306 | 0.181 | 0.154
16 | NCI-H1993 | 0.598 | 0.566 | 0.49 | 0.718 | 0.5 | 0.523 | 0.454 | 0.356 | 0.512
17 | RERF-LC-KJ | 0.88 | 0.875 | 0.805 | 0.845 | 0.909 | 0.577 | 0.436 | 0.42 | 0.385
18 | NCI-H23 | 0.392 | 0.341 | 0.37 | 0.432 | 0.382 | 0.653 | 0.384 | 0.325 | 0.269
